# Literature values as cited in US20260240855A1 (priority 2023, published 2026).
# Tested on: extracellular signal-regulated kinase (ERK)
# Conditions: preclinical studies
smiles,measurement,value
"C=CC(=O)N1CCN(c2nc(=O)n(-c3c(C)ccnc3C(C)C)c3nc(-c4c(O)cccc4F)c(F)cc23)[C@@H](C)C1 (atropisomer, axis not shown; (M)) [Sotorasib, 6-fluoro-7-(2-fluoro-6-hydroxyphenyl)-(1M)-1-[4-methyl-2-(propan-2-yl)pyridin-3-yl]-4-[(2S)-2-methyl-4-(prop-2-enoyl)piperazin-1-yl]pyrido[2,3-d]pyrimidin-2(1H)-one]",phosphorylation of extracellular signal-regulated kinase (ERK),inhibited nearly all detectable phosphorylation
